Publication PMC12284513, “Unique structural features define the decarboxylation activity of a CYP152 fatty acid decarboxylase from Lacicoccus alkaliphilus” (The Journal of Biological Chemistry, 2025)

Tests used:
OleTJE L176I = experiment: Fatty acid bioconversion with H2O2 as co-substrate (alkene by GC-MS, hydroxy products by HPLC-MS); assay type: biochemical, Jeotgalicoccus sp. 8456; conditions: for Decarboxylation activity of OleTJE L176I compared to that of OleTJE wild type: 200 μM substrate, 400 μM H2O2
Procedure: A reaction was typically quenched by adding 2-fold reaction volume of ethyl acetate which contained 30 μM of tetradecane as an internal standard. The reaction mixtures were vortexed for 1 min and then centrifuged at 12,000 rpm, 4 °C for 10 min to separate an organic and an aqueous phase. The organic phase was injected into an Agilent gas chromatography system (GC-MS) (Agilent 7890B equipped with Agilent 5977B MSD) equipped with a HP5-MS column (30 m × 0.25 mm × […]) (Agilent), and helium was used as a carrier gas. The oven conditions for C10FA and 1-nonene (C9 alkene) were ramped up from 60 to 240 °C with a rate of 19 ° C min^−1 and held at 240 °C for 1 min. […] For C18FA and 1-heptadecene (C17 alkene), the oven was ramped up from 60 to 250 °C with a rate of 22 °C min^−1 and hold at 250 °C for 4 min. For C20FA and 1-nonadecene (C19 alkene), the oven was ramped up from 100 to 250 °C with a rate of 23 °C min^−1 and held at 250 °C for 6 min. The response of target compounds was normalized with signals of the internal standard. The concentration of each compound was calculated based on a standard calibration curve.
For analyzing hydroxylated products of fatty acids, the reactions were quenched by adding an equal volume of acetonitrile, centrifuged, and filtrated. The analytes (10 μl) were injected into a liquid chromatography coupled with diode array and single quadrupole mass spectroscopy detection (LC-DAD/MS) (Agilent 1290 Infinity II LC System equipped with DAD, Single Quadrupole Mass Spectrometers system). A Zorbax eclipse plus C18 column (5 μm, 4.6 × 250 mm) (Agilent Technology) was used for separation. The mobile phase system A was water with 0.1% (v/v) formic acid, and system B was acetonitrile with 0.1% (v/v) formic acid.
All fatty acids were prepared in absolute EtOH at 20 mM as stock solutions. The reaction was carried out in 50 mM NaH2PO4 buffer with 300 mM NaCl, pH 7.5, with 2.5 or 10% (v/v) of EtOH, 200 μM of a substrate, and 400 μM of H2O2. The reactions were performed at 25 °C for 1 h, and then the alkene product was measured using GC-MS after the reactions were quenched and extracted with two-fold volume of ethyl acetate.
Site-directed mutagenesis of I178L of OleTLA and […] of OleTJE was done with overlaping PCR that used OleTLA or OleTJE plasmids as templates (Table S4). The PCR products were treated with DpnI in cut smart buffer at 37 °C for 16 h, transformed into E. coli XL−1 blue competent cells and grown at 37 °C on LB agar containing 50 μg/ml ampicillin. The plasmids of selected colonies were extracted for sequence verification. The plasmid containing the correct sequence was transformed into E. coli BL21 (DE3) for enzyme expression. The expression and purification methods of variants were the same as those of wild-type OleTLA and OleTJE.

[1] = test system: Escherichia coli BL21 (DE3) cells co-transformed with pGro7, FdR/FdX system, and OleTLA or OleTJE; experiment: In vivo bioconversion of C16FA with the FdR/FdX redox partner system; assay type: cell-based; conditions: 128.22 mg/L of C16FA added, cells overexpressing OleTLA and OleTJE
Procedure: The pRSFDuet−1 vector containing FdR/FdX and OleTLA or OleTJE was transformed into competent E. coli BL21 (DE3) containing a pGro7 plasmid. The transformed cells were incubated in LB broth at 37 °C, 220 rpm for 1.5 h, spread on LB agar with ampicillin (50 μg/ml), kanamycin (34 μg/ml), and chloramphenicol (20 μg/ml), and incubated at 37 °C for overnight. A single colony was inoculated into a starter culture in an auto-induction medium with appropriate antibiotics and 1% (w/v) of glucose. The culture was then incubated at 37 °C, 220 rpm overnight. Then, 1% (v/v) of the starter was inoculated into the auto-induction medium in the presence of ammonium iron (III) citrate (20 ug/ml), L-arabinose (2 mg/ml), ampicillin (50 μg/ml), kanamycin (34 μg/ml), and chloramphenicol (20 μg/ml), hemin (0.05 mM) and δ-ALA (0.5 mM) and then grown at 37 °C, 220 rpm until OD600 reached about 0.8 to 1.0. […] At a specific time point, the culture medium was sampled and extracted by adding two-fold ethyl acetate with tetradecane as an internal standard. The mixture was vortexed and centrifuged at 4 °C for 10 min. The organic phase was collected and injected into the GC-MS system.

[2] = Thermofluor assay of enzyme melting temperature; assay type: physicochemical; conditions: reductase enzymes of the redox partner systems (Fig. S16)
Procedure: The reactions containing 10 μM of enzyme, 25X of SYPRO Orange Protein Gel Stain solution in 25 μl of a storage buffer were carried out in a CFX96 Real-Time (Bio-Red) Thermal Cycle. The temperature of the experiments was raised from 30 to 80 °C at a continuous rate of 1 °C min^−1. The temperature at which half of the total amount of protein transitioned into an unfolded form is designated as the melting temperature.

For `CCCCCCCCCC(=O)O` [C10FA, decanoic acid], the “Decarboxylation activity of OleTJE L176I compared to that of OleTJE wild type” value (OleTJE L176I) was “less than 1%”.

With `CCCCCCCCCCCC(=O)O` [C12FA, dodecanoic acid] the “Decarboxylation activity of OleTJE L176I compared to that of OleTJE wild type” value (OleTJE L176I) was “less than 1%”.

For `C=CCCCCCCCCCCCCC` [C15 alkene, 1-pentadecene], the C15 alkene produced ([1]; after 24 h) was 0.42 mg/L and the C15 alkene produced ([1]; after 48 h) was “around 1.26 mg/L”.

In the case of `CCCCCCCCCCCCCCCCCC(=O)O` [C18FA, octadecanoic acid], the “Decarboxylation activity of OleTJE L176I compared to that of OleTJE wild type” value (OleTJE L176I) is reported as “less than 5%”.

With `CCCCCCCCCCCCCCCCCCCC(=O)O` [C20FA, icosanoic acid] the “Decarboxylation activity of OleTJE L176I compared to that of the wild-type enzyme” value (OleTJE L176I; 2.5% (v/v) EtOH) was 37% and the “Decarboxylation activity of OleTJE L176I compared to that of the wild-type enzyme” value (OleTJE L176I; 10% (v/v) EtOH) was 23%.

B1: CamA: putidaredoxin reductase, known redox partner, from Pseudomonas putida (protein, UniProt P16640 1-422, looked up)
Putidaredoxin reductase CamA: MNANDNVVIVGTGLAGVEVAFGLRASGWEGNIRLVGDATVIPHHLPPLSKAYLAGKATAESLYLRTPDAYAAQNIQLLGGTQVTAINRDRQQVILSDGRALDYDRLVLATGGRPRPLPVASGAVGKANNFRYLRTLEDAECIRRQLIADNRLVVIGGGYIGLEVAATAIKANMHVTLLDTAARVLERVTAPPVSAFYEHLHREAGVDIRTGTQVCGFEMSTDQQKVTAVLCEDGTRLPADLVIAGIGLIPNCELASAAGLQVDNGIVINEHMQTSDPLIMAVGDCARFHSQLYDRWVRIESVPNALEQARKIAAILCGKVPRDEAAPWFWSDQYEIGLKMVGLSEGYDRIIVRGSLAQPDFSVFYLQGDRVLAVDTVNRPVEFNQSKQIITDRLPVEPNLLGDESVPLKEIIAAAKAELSSA
In the case of B1, the Tm [2] is reported as 50 °C.

B2: FdR: ferredoxin reductase, redox partner, gene from Escherichia coli K-12 (protein, UniProt P28861 2-248, looked up)
Flavodoxin/ferredoxin--NADP …: ADWVTGKVTKVQNWTDALFSLTVHAPVLPFTAGQFTKLGLEIDGERVQRAYSYVNSPDNPDLEFYLVTVPDGKLSPRLAALKPGDEVQVVSEAAGFFVLDEVPHCETLWMLATGTAIGPYLSILQLGKDLDRFKNLVLVHAARYAADLSYLPLMQELEKRYEGKLRIQTVVSRETAAGSLTGRIPALIESGELESTIGLPMNKETSHVMLCGNPQMVRDTQQLLKETRQMTKHLRRRPGHMTAEHYW
B2 showed a Tm [2] of 60 °C.
